In one assay the test system is Raji cells. The experiment in a line: Raji tumor xenograft model, CAR-T cells prepared as in Example 7. The format is in vivo, nod scid gamma (NSG) immunodeficient mice. As to the method: Anti-tumor effects of anti-CD19 CAR-T cell compositions prepared in the presence DMSO, PI-103 or Compound 63 as described in Example 7 were assessed in vivo. The tumor xenograft mouse model was generated by implanting nod scid gamma (NSG) immunodeficient mice with 0.5×10^6 Raji cells (an immortalized human B lymphocyte tumor cell line that expresses CD19), which were allowed to engraft. The Raji cells were transfected with firefly luciferase to facilitate measurement of tumor burden by bioluminescence imaging. After seven days, mice either received no treatment, or treatment with a low dose (0.25×10^6) or a high dose (1.0×10^6) of anti-CD19 CAR+ T cells prepared in the presence of DMSO (vehicle) or DMSO and a mTOR kinase inhibitor. Tumor burden and mortality were assessed weekly.

Assay [1] relates to CAR-T cells incubated with CD19-expressing target cells. The experiment in a line: Intracellular and secreted cytokines of CAR-T cells (mixed CD4+/CD8+ process). The format is cell-based, human. The following applies: for levels of secreted cytokines (IL-2, TNF-alpha, IFN-gamma) in supernatants: 20 hours with CD19-antigen expressing cells, ELISA; for polyfunctional effector cytokine profiles (IL-2, TNF-alpha, IFN-gamma) compared to DMSO: CD8+ and CD4+ subsets, primary or secondary stimulation, golgi inhibitor 5 hours. The method, then: Separate compositions of CD4+ and CD8+ cells were selected from isolated PBMCs from a leukapheresis sample from the same human donor by immunoaffinity based selection, and the selected cell compositions were cryofrozen. The separate compositions of CD4+ and CD8+ T cells were subsequently thawed and mixed at a ratio of 1:1 of viable CD4+ T cells to viable CD8+ T cells. In this study, the mixed CD4+ and CD8+ cell populations were incubated in the presence of Compound 63, PI103 or no inhibitor (DMSO vehicle control) beginning at the initiation of stimulation. In more detail, the mixed CD4+ and CD8+ T cell composition was stimulated (in the presence or absence of an inhibitor, as indicated) in the presence of paramagnetic polystyrene-coated beads with attached anti-CD3 and anti-CD28 antibodies for between 18 to 30 hours, and were then transduced with a lentiviral vector encoding an anti-CD19 CAR. The CAR contained an scFv antigen-binding domain specific for CD19 (derived from FMC63), a CD28 transmembrane region, a 4-1BB costimulatory signaling region, and a CD3-zeta derived intracellular signaling domain. The cells were then expanded in the presence of cytokines typically for approximately 6-7 days. Beginning with stimulation and for the duration of the process, the media contained DMSO (vehicle control), 2 μM PI103 or 1 μM Compound 63. The vehicle control contained DMSO at a volume to match that in the mTOR inhibitor-treated samples. Expanded cells were cryopreserved. For assessment, the cryopreserved CAR-T cells were thawed and washed prior to assessment in assay media without supportive cytokines and without inhibitor or vehicle.
Intracellular cytokine levels were monitored in cells of co-cultures incubated with freshly thawed generated CAR-T cells or CAR-T cells after secondary restimulation with CD19-expressing target cells. CAR-T cells were incubated with target-expressing cells in the presence of golgi inhibitor for 5 hours. Intracellular expression of IL-2, TNF-alpha and IFN-gamma was determined and a polyfunctional score was calculated by gating for cumulative CAR-T cells positive for IL-2 and any combination of IFN-gamma and TNF-alpha. […] Generated CAR-T cells were also cultured with CD19-antigen expressing cells for 20 hours and levels of IL-2, TNF-alpha and IFN-gamma were assessed in cell culture supernatants by ELISA.
In general terms: An ELISA detects its analyte on a solid surface through an enzyme-linked reagent.

A further assay has as its system Ribo-S6 phosphorylation. The experiment in a line: Inhibition of ribosomal protein S6 phosphorylation in stimulated primary human T cells (flow cytometry). The format is cell-based. As to the method: The dose effect of exemplary mTOR kinase inhibitors in primary human T cells was assessed by monitoring inhibition of ribosomal protein S6.
CD4+ and CD8+ T cells were isolated by immunoaffinity-based enrichment from leukapheresis samples from human donor subjects. Isolated CD4+ and CD8+ T cells were mixed 1:1 and stimulated with anti-CD3/anti-CD28 magnetic beads in the presence of increasing concentrations of an mTOR kinase inhibitor, PI-103, Compound 155, Compound 63, or Compound 246. The T cell cultures were incubated overnight (approximately 16 hr) at 37° C. Following incubation in the presence of PI-103, Compound 155, Compound 63, or Compound 246, T cells were assessed for intracellular S6 phosphorylation and co-stained for surface expression of CD4 or CD8, by flow cytometry.
(In general: In flow cytometry, cells or beads pass a laser one at a time.)

For the next assay, the system named is anti-CD19 CAR-T cells. The experiment in a line: CAR-specific expansion with anti-idiotype antibody conjugated beads. It counts as cell-based, human. The following applies: anti-idiotype beads 1:1, 15 days; relative to media only. The method, then: Separate compositions of CD4+ and CD8+ cells were isolated from three human donors, activated and transduced with a viral vector encoding an anti-CD19 CAR substantially as described in Example 2. After transduction, the CD4+ and CD8+ T cells derived from each donor were separately incubated for 8 days in the presence of a mTOR kinase inhibitor to expand T cells substantially as described in Example 2, except in the presence of 200 nM PI-103, 1 μM Compound 63, or with DMSO vehicle or media only controls. CD4+ and CD8+ T cells from each donor were then separately harvested, formulated, and cryofrozen. […] Functional activities of the generated anti-CD19 CAR-T cell compositions were assessed.
The ability of the cells to expand following stimulation of the CAR was assessed by incubating cells of the generated anti-CD19 CAR-T cell compositions with beads surface conjugated with an anti-idiotype antibody specific to the anti-CD19 CAR. […] The total live T cells per well was determined by counting cells in the cultures every 5 days (FIG. 8A). The mean area under the curve (AUC) as a function of T cell number over time was calculated relative to the AUC of cells expanded with media only (FIG. 8B).

Assay [2] concerns CD8+ and CD4+ T cells of anti-CD19 CAR-T cell compositions. The experiment in a line: Intracellular polyfunctional cytokine profiles. The following applies: cells expanded with 200 nM PI-103 or 1 μM Compound 63; PMA/Ionomycin + Golgi Inhibitor or Golgi Inhibitor alone, 5 hours. It counts as cell-based, human. As to the method:
Separate compositions of CD4+ and CD8+ cells were isolated from three human donors, activated and transduced with a viral vector encoding an anti-CD19 CAR substantially as described in Example 2. After transduction, the CD4+ and CD8+ T cells derived from each donor were separately incubated for 8 days in the presence of a mTOR kinase inhibitor to expand T cells substantially as described in Example 2, except in the presence of 200 nM PI-103, 1 μM Compound 63, or with DMSO vehicle or media only controls. CD4+ and CD8+ T cells from each donor were then separately harvested, formulated, and cryofrozen. The cryofrozen engineered CD4+ and CD8+ T cells were thawed, washed to remove compound, and cells from the same donor were then combined at a ratio of 1:1 viable CD4+/CAR+ to viable CD8+/CAR+ T cells to produce an expanded anti-CD19 CAR-T cell composition containing CD4+ and CD8+ T cells. Functional activities of the generated anti-CD19 CAR-T cell compositions were assessed.
Intracellular cytokines, CD107a, IFN-gamma ([…]), IL-2, IL-17a, and TNF-alpha (TNFα), were assessed in co-cultured T cells that were split into two groups and further incubated for 5 hours with PMA/Ionomycin and a Golgi Inhibitor or a Golgi Inhibitor alone. The intracellular cytokine accumulation was expressed as a fold change in frequency of cytokine positive cells from media-only controls. […]

The mark [3] stands for this setting: Homo sapiens, T-cell, CD8+ T cells, read-out: IC50 for inhibition of Ribo-S6 phosphorylation, CD8.
[4] abbreviates: Homo sapiens, CD4+ T cells, read-out: IC50 for inhibition of Ribo-S6 phosphorylation, CD4.
Setting [5] is: T-cell, primary human CD4+/CD8+ T cells mixed 1:1, anti-CD3/anti-CD28 beads, approximately 16 hr, read-out: IC50 for the inhibition of S6 phosphorylation in the T cells.

Read-outs that look alike come from different tables or passages of the source.

These results are taken from patent US20210254000A1, “PROCESS FOR PRODUCING A T CELL COMPOSITION” (Juno Therapeutics, Inc., priority 2017, published 2021).

The IC50 is the concentration that inhibits the measured activity by half. With `Oc1cccc(-c2nc(N3CCOCC3)c3oc4ncccc4c3n2)c1` [PI-103, reference compound], the “anti-tumor effects compared to cells produced in the absence of inhibitor (DMSO vehicle)” value in the assay on Raji cells (CAR-T cells generated from another donor) was “comparable anti-tumor effects”. Further, the “levels of secreted cytokines (IL-2, TNF-alpha, IFN-gamma) in supernatants” value in assay [1] is on record as “increased levels of secreted cytokines”. Moreover, the “polyfunctional effector cytokine profiles (IL-2, TNF-alpha, IFN-gamma) compared to DMSO” value in assay [1] is given as “improved polyfunctional effector cytokine profiles”. Besides, the results for the 50% inhibitory concentration (IC50) in the assay with Ribo-S6 phosphorylation (setting [3]), in the assay with Ribo-S6 phosphorylation (setting [4]) and with Ribo-S6 phosphorylation (setting [5]) were 88.4 nM, 121 nM and roughly 100 nM, respectively. In the assay with anti-CD19 CAR-T cells, the “mean AUC of live T cell number over time compared to DMSO vehicle” value was “larger mean AUC”. The “frequency of polyfunctional cytokine profiles in CD8+ and CD4+ T cells vs control cells” value in assay [2] is recorded as “increased frequency of certain polyfunctional cytokine profiles”.
As to `CC(C)c1ccccc1-n1c(=O)[nH]c2c(C(N)=O)nc(-c3cccc(O)c3)nc21` [Compound 63, 2-(3-Hydroxyphenyl)-9-(2-isopropylphenyl)-8-oxo-8,9-dihydro-7H-purine-6-carboxamide], the “in vivo anti-tumor responses compared to absence of inhibitor (DMSO vehicle)” value in the assay with Raji cells (low (0.25×10^6) or high (1.0×10^6) dose of CAR+ T cells prepared with the inhibitor) is “improvement in vivo anti-tumor responses”. In addition, the “levels of secreted cytokines (IL-2, TNF-alpha, IFN-gamma) in supernatants” value in assay [1] was “increased levels of secreted cytokines”. For the same compound, the “polyfunctional effector cytokine profiles (IL-2, TNF-alpha, IFN-gamma) compared to DMSO” value in assay [1] is recorded as “improved polyfunctional effector cytokine profiles”. In addition, the half-maximal inhibitory concentration (IC50) with Ribo-S6 phosphorylation (setting [3]) was 503 nM; in the assay with Ribo-S6 phosphorylation (setting [4]) it was 468 nM; in the assay with Ribo-S6 phosphorylation (setting [5]), roughly 500 nM. Further, the “mean AUC of live T cell number over time compared to DMSO vehicle” value with anti-CD19 CAR-T cells is given as “larger mean AUC”. Also, the “frequency of polyfunctional cytokine profiles in CD8+ and CD4+ T cells vs control cells” value in assay [2] was “increased frequency of certain polyfunctional cytokine profiles”.
